Measured values: BindingDB's records for doi:10.1074/jbc.M113.493767 (Novartis Institute For Tropical Diseases, 2013)
Numbered stars: 1 amine (or outer) side, 2 acyl side, 3 side chain; on linkers, the order of the positions; unused ones are H or OH. Square brackets hold non-standard residues; d marks the D form. Peptide text beside a SMILES is read from it. X1 = CC(C)([C@@H](O)CNCCCN)n1cc([C@@H](O)[C@H](N[*:1])C(=O)[*:2])c2ccccc21; Ala(3R-Me,3-isobutenyl) = CC(C)=C[C@@H](C)[C@H](N)C(=O)O; NMeLeu(5-OH,4R) = CN[C@@H](C[C@@H](C)CO)C(=O)O; Phe(βR-OMe) = CO[C@H](c1ccccc1)[C@H](N)C(=O)O; NMeL = CN[C@@H](CC(C)C)C(=O)O

Target: ATP-dependent Clp protease ATP-binding subunit ClpC1 (Mycobacterium tuberculosis (strain ATCC 25618 / H37Rv), UniProt P9WPC9)
Assay: Isothermal Titration Calorimetry (ITC)
Details: pH 7.5; 25 °C
Experimental: Isothermal titration calorimetry experiments were performed using an iTC200 (GEHealthcare) at 25 °C, with 15-20 μM ClpC1 (in 20 mM Tris-HCl, pH 7.5, 300 mM NaCl, 1 mM EDTA, 1 mM Tris(2-carboxyethyl) phosphine, 9% DMSO) in the sample cell. Typically, 19 injections of 2 μl of 150-200 μM CymA1 solution in the same bufferwere injected into the sample cell at 2.5-min intervals.

Sequence of ATP-dependent Clp protease ATP-binding subunit ClpC1 (P9WPC9 whole entry): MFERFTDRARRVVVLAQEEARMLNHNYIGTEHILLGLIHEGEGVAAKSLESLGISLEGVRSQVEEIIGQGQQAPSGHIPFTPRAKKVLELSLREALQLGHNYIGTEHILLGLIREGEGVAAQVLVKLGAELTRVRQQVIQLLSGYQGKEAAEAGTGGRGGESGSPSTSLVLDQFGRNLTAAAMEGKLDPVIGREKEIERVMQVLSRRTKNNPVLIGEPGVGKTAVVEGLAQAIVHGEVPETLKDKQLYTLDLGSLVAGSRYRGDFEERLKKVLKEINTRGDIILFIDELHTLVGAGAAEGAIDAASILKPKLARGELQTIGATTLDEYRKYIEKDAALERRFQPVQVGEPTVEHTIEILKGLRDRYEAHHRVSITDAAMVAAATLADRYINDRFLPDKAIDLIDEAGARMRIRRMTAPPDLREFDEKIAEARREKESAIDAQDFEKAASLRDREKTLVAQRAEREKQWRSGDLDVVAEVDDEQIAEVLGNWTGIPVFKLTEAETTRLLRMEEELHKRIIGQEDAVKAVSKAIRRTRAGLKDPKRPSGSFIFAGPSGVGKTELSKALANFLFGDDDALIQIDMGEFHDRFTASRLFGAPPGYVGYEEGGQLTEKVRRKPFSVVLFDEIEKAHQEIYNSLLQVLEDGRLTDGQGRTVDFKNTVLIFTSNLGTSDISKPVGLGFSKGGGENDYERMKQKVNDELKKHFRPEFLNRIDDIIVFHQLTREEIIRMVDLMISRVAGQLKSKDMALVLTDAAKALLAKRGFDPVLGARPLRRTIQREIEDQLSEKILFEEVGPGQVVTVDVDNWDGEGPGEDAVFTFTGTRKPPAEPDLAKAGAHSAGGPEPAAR

**Q.** Which Kd does the source give for CO[C@H](c1ccccc1)[C@@H]1NC(=O)[C@H](C)NC(=O)[C@H](C[C@@H](C)CO)N(C)C(=O)[C@H]([C@H](O)c2cn(C(C)(C)[C@@H](O)CNCCCN)c3ccccc23)NC(=O)[C@H]([C@H](C)C=C(C)C)NC(=O)[C@H](CC(C)C)N(C)C(=O)[C@H](C(C)C)NC1=O [Cyclomarin A1 (CymA1)] (cyclo(A[Phe(βR-OMe)]V[NMeL][Ala(3R-Me,3-isobutenyl)][X1][NMeLeu(5-OH,4R)])) here?
**A.** 17.5 nM
